Laboratory results from ChEMBL document CHEMBL4665682, “Fragment Linking Strategies for Structure-Based Drug Design” (J Med Chem, 2020).

Assays:
Endothiapepsin = target: T1, Endothiapepsin (Cryphonectria parasitica, UniProt P11838); experiment: Inhibition of Endothia parasitica endothiapepsin using Abz-Thr-Ile-Nle-p-nitro-Phe-Gln-Arg-NH2 as substrate by fluorescence method
T1 sequence (P11838 whole entry): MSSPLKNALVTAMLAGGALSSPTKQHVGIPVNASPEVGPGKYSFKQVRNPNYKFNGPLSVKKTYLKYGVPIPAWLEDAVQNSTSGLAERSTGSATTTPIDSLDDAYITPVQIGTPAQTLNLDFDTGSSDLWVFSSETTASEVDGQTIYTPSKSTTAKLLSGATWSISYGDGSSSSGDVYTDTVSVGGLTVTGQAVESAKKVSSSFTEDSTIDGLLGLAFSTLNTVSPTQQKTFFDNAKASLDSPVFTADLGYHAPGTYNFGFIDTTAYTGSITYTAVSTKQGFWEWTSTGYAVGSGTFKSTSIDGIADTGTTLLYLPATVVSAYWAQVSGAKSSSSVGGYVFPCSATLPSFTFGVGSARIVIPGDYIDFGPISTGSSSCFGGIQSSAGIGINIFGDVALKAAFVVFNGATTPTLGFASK

Histone deacetylase 8 = target: T2, Histone deacetylase 8 (Homo sapiens, UniProt Q9BY41); experiment: Inhibition of HDAC8 (unknown origin) using acetylated lysine as substrate incubated for 20 mins by Lineweaver-Burk double-reciprocal plot analysis
T2 sequence (Q9BY41 whole entry): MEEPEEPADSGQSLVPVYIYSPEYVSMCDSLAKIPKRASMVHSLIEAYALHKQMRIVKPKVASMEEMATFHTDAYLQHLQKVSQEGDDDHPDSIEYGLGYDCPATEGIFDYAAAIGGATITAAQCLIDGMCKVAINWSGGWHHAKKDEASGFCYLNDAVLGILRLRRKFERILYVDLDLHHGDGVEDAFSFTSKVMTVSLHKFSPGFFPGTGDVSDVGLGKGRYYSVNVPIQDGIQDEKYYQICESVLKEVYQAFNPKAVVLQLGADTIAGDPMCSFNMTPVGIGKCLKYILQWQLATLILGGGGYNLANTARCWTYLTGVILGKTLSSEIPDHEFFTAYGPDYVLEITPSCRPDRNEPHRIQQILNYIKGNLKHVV

Bcl-2-like protein 1 = Bcl-2-like protein 1 (Homo sapiens, UniProt Q07817)
Chain of Bcl-2-like protein 1 (Q07817 whole entry): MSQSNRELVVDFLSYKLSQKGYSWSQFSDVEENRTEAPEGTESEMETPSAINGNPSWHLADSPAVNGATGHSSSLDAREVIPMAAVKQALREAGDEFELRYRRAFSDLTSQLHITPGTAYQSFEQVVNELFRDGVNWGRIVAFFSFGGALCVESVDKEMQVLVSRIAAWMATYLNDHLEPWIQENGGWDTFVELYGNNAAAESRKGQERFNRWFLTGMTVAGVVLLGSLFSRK
Description: Inhibition of FITC-labeled Bak BH3 peptide binding to His6-tagged GST-fused Bcl-xL (unknown origin) expressed in Escherichia coli BL21 preincubated for 10 mins followed by Bak BH3 peptide addition and measured after 30 mins by fluorescence polarization-based competitive binding assay

[1] = Binding affinity to FKBP (unknown origin) by fluorescence-based assay; design: species or system Homo sapiens
[2] = Inhibition of human lung tryptase using Tosyl-Gly-Pro-Arg-p-nitroanilide as substrate preincubated for 5 mins followed by substrate addition and measured after 15 mins
Chitinase B = target: T3, Chitinase B (Serratia marcescens, UniProt P11797); experiment: Inhibition of Serratia marcescens chitinase B
T3 sequence (P11797 whole entry): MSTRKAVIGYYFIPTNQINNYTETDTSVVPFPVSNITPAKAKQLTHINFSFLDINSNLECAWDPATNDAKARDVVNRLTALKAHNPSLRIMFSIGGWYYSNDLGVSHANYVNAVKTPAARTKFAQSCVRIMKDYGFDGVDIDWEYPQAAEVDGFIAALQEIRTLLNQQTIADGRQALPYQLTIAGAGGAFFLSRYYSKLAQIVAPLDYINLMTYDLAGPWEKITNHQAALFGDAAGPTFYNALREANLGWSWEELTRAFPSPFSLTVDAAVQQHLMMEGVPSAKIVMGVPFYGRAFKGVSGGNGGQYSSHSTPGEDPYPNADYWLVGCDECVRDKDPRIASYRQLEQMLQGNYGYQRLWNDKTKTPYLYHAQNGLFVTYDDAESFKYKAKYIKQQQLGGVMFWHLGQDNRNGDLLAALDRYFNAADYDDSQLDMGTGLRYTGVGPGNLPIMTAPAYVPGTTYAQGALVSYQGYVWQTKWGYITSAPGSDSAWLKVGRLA

Heat shock protein HSP90 [3] = target: T4, Heat shock protein HSP90 (Homo sapiens, UniProt P07900+P08238); experiment: Displacement of biotin-labelled geldanamycin from human HSP90 (D9 to E236 residues) incubated for 3 hrs by FRET assay; assay type: protein assay
[4] = Inhibition of avidin (unknown origin)
[5] = Binding affinity to human E-selectin/IgG expressed in CHO-K1 cells by surface plasmon resonance
[6] = Binding affinity to His6-tagged Mycobacterium tuberculosis pantothenate synthetase expressed in Escherichia coli C41(DE3) measured over 30 mins by isothermal titration calorimetry
[7] = target: Proto-oncogene tyrosine-protein kinase Src (Homo sapiens, UniProt P12931); experiment: Inhibition of c-Src (unknown origin) using biotin-KVEKIGEGTYGVVYK as substrate by ELISA
Chain of Proto-oncogene tyrosine-protein kinase Src (P12931 2-536 limits assumed): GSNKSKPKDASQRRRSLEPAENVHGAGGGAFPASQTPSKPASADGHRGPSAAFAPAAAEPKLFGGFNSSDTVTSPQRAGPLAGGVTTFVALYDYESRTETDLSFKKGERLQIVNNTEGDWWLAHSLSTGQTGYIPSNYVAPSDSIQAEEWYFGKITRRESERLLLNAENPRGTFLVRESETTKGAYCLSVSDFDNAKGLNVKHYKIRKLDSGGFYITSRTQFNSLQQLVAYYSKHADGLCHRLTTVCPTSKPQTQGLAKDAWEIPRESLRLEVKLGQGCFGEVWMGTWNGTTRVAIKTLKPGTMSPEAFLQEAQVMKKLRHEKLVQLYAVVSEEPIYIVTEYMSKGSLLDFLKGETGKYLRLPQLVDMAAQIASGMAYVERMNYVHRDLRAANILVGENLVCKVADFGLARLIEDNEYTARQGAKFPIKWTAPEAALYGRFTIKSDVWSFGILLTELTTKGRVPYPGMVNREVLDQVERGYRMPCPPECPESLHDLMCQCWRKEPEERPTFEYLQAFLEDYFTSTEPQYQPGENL

Heat shock protein HSP90 [8] = target: T4, Heat shock protein HSP90; experiment: Inhibition of human HSP90 (D9 to E236 residues) by fluorescence spectroscopy; assay type: protein assay
[9] = Inhibition of Mycobacterium tuberculosis EthR assessed as reduction in protein interaction with immobilized ethA promoter DNA by SPR assay
Heat shock protein HSP90 [10] = target: T4, Heat shock protein HSP90
Description: Binding affinity to N-terminal human HSP90 (D9 to E236 residues) expressed in Escherichia coli BL21(DE3) by 1H-13C HSQC-NMR spectroscopy

CDK2/Cyclin A2 = CDK2/Cyclin A2 (Homo sapiens, UniProt P24941); experiment: Inhibition of CDK2/Cyclin A (unknown origin) using histone H1 as substrate by scintillation counting method; assay type: protein-complex assay
Heat shock protein HSP90 [11] = target: T4, Heat shock protein HSP90; experiment: Inhibition of HSP90 (unknown origin) by confocal fluorescence-based biochemical assay; assay type: protein assay
[12] = target: T5, Tyrosine-protein phosphatase non-receptor type 1 (Homo sapiens, UniProt P18031); experiment: Binding affinity to N-terminal GST-fused human PTP1B (1 to 288 residues) expressed in Escherichia coli BL21(DE3) by HSQC NMR analysis
T5 sequence (P18031 whole entry): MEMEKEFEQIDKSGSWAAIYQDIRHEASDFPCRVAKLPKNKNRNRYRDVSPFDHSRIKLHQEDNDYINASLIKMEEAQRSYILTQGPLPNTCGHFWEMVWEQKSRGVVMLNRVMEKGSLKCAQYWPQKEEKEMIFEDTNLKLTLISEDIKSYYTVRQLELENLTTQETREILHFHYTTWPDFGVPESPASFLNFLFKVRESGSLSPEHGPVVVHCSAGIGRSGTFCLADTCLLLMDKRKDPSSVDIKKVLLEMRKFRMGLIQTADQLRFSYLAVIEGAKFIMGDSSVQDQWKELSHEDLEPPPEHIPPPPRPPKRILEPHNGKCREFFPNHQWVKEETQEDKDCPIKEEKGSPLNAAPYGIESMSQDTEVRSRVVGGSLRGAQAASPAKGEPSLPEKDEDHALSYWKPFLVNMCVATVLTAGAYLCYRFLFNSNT

C#Cc1ccc(N2CCNCC2)cc1
IC50 (Endothiapepsin): 43 µM

O=C(NO)c1ccc(-c2cn(CC34CC5CC(CC(C5)C3)C4)nn2)s1
IC50 (Histone deacetylase 8): 4000 nM

CC1(C)CCN(c2ccc(C(=O)S)cc2)CC1
IC50 (Bcl-2-like protein 1): > 100 µM

COc1cc(C(=O)C(=O)N2CCCC[C@H]2C(=O)OCCCc2ccc(C(=O)Nc3ccc(O)cc3)cc2O)cc(OC)c1OC
Kd [1]: 49 nM

N=C(N)c1ccc(C(=O)NCc2ccc(OCCCCCOc3ccc(CNC(=O)c4ccc(C(=N)N)cc4)cc3)cc2)cc1
Ki [2]: < 1e-05 µM

CNC(=O)NC(=N)NCCC[C@H](NC(=O)CN=[N+]=[N-])C(=O)N(Cc1ccccc1)Cc1ccccc1
IC50 (Chitinase B): 580 nM

Cc1cc(CNS(=O)(=O)c2ccc(N/C=C3\CCOC3=O)cc2)nc(N)n1
Ki (Heat shock protein HSP90 [3]): 1.9 µM

C[C@H]1CNC(=O)N1
Ki [4]: 34 µM

O=C(NO)c1ccc(-c2cnnn2CC23CC4CC(CC(C4)C2)C3)s1
IC50 (Histone deacetylase 8): 510 nM

COC(=O)[C@H]1C[C@H](O[C@@H]2O[C@H](CO)[C@H](O)[C@H](O[C@@H](CC3CCCCC3)C(=O)O)[C@H]2OC(=O)c2ccccc2)[C@H](O[C@@H]2O[C@@H](C)[C@@H](O)[C@@H](O)[C@@H]2O)[C@@H](C)C1
Kd [5]: 1900 nM

COc1ccc2c(ccn2CC(=O)O)c1
Kd [6]: 500 µM

C#Cc1ccc(C(=O)NO)s1
IC50 (Histone deacetylase 8): 1000 nM

CCn1c2ccccc2c2cc(/C=N/OC)ccc21
IC50 [7]: 40 µM

Cc1cc(C#Cc2ccccc2N/C=C2\CCOC2=O)nc(N)n1
Ki (Heat shock protein HSP90 [8]): 4 µM

CCn1c2ccccc2c2cc(/C=N/OCCO/N=C/c3ccc(O)c(O)c3)ccc21
IC50 [7]: 0.064 µM

C[C@@H]1O[C@@H](O[C@H]2[C@@H](O[C@@H]3O[C@H](CO)[C@H](O)[C@H](O[C@@H](CC4CCCCC4)C(=O)O)[C@H]3OC(=O)c3ccccc3)C[C@H](C(=O)NCCCc3cn(CCCn4ccc5cc([N+](=O)[O-])ccc54)nn3)C[C@@H]2C)[C@@H](O)[C@H](O)[C@@H]1O
Kd [5]: 30 nM

O=C(CCc1ccccc1)N1CC[C@@H](SS[C@@H]2CCN(C(=O)CCc3ccccc3)C2)C1
IC50 [9]: 970 nM

O=C1OCC/C1=C\Nc1ccccc1
Kd (Heat shock protein HSP90 [10]): 150 µM

NNc1ccc(S(N)(=O)=O)cc1
IC50 (CDK2/Cyclin A2): > 1 mM

O=C(O)c1cc2ccccc2o1
Kd [6]: 1000 µM

N=C(N)c1ccccc1 [BENZAMIDINE]
Ki [2]: 22 µM

CN(C)c1ncnc2nc[nH]c12 [DIMETHYLADENINE]
IC50 (Heat shock protein HSP90 [11]): 1.5 mM

CCCCCC(=O)O [HEXANOATE]
Ki [4]: 260 µM

O=C(O)c1ccc2ccccc2n1 [QUINALDIC ACID]
Kd [12]: > 1 mM
